According to PMC13534789, “Molecular Glue Degraders Enhance CAPRIN1‐Dependent Lysosomal Degradation of APP and Reduce Amyloid β in Alzheimer's Disease” (Advanced Science, 2026):

Experiments:
CAPRIN1 and APP = target: T1, CAPRIN1 and APP (Homo sapiens, UniProt P05067+Q14444); experiment: Streptavidin pull-down with biotinylated 0152 in AG27606-N lysates; format: binding
T1 construct: endogenous in cells; host or cells: AG27606-Ns, sAD2.3-Ns (iPSC-derived neurons) and their lysates

LN229 and HCT116 cells = test system: LN229 and HCT116 cells; set-up: method as in PMID 34644148; conditions: cited from earlier work

SMILES: N#Cc1ccc2nc(NC(=O)Nc3cccc(Cl)c3)sc2c1 [HB007, reference compound]
- Competition of the 0152-biotin pull-down by excess free compound (CAPRIN1 and APP): not by the inactive analog HB007
- Cancer cell growth (LN229 and HCT116 cells): inhibits cancer cell growth
